In general, melting point refers to the temperature, or range, at which the solid turns liquid. Usually IC50 stands for the midpoint of a concentration-inhibition curve.

≈ marks a conversion by molar mass, not a printed value. Like-named read-outs stand apart in the source and are kept apart here.

In series [1] the test system is Mycobacterium tuberculosis H37Rv (ATCC 27294). In words: Microplate Alamar Blue Assay (MABA) in BACTEC 12B medium (TAACF screen). Conditions: for IC50: read-out: IC50. It counts as cell-based.
Setting [2] is: read-out: anti-TB active compound (MIC90 less than 10 μg/mL), classification.

With `CCCc1cc(=O)oc2c3c(c4c(c12)OC(C)(C)C=C4)OC(=O)CC3`, the melting point lay within 132 to 135 °C.

The compound `CCCc1cc(=S)oc2c3c(c4c(c12)OC(C)(C)C=C4)OC(C)CC3=O` (centres unmarked) showed a melting point of 139 to 141 °C.

`CCCCC1C=Cc2c3c(c4oc(=O)c(F)c(CCC)c4c2O1)C(=O)CC(C)O3` (centres unmarked) displayed a melting point of 119 to 121 °C.

As to `CCCc1cc(=O)oc2c3c(c4c(c12)OC(C)(C)C=C4)OC(CN)CC3=O` (centres unmarked), the melting point is > 220 °C (dec.).

`CCCc1cc(=O)oc2c3c(c4c(c12)OC(C)(C)C=C4)OC(CNS(=O)(=O)c1ccc(F)cc1)CC3=O` (centres unmarked) showed a melting point of 129 to 131 °C.

Compound `CCCc1cc(=O)oc2c3c(c4c(c12)OC(C)(C)C=C4)OC(CNS(=O)(=O)c1ccc(OC)cc1)CC3=O` (centres unmarked) registered a melting point of 108 to 109 °C.

Turning to `CCCc1cc(=O)oc2c3c(c4c(c12)OC(C)(C)C=C4)OC(CN1CCCCC1)CC3=O` (centres unmarked), the melting point lay within 154 to 155 °C.

With `CCCc1cc(=O)oc2c(-c3cccn3C(C)C)c(O)c3c(c12)OC(C)(C)C=C3`, the melting point lay in the range of 161 to 162 °C.

Take `CCCc1cc(=O)oc2c(-c3cccn3Cc3ccco3)c(O)c3c(c12)OC(C)(C)C=C3`: the melting point was 157 to 159 °C.

The compound `Cc1cc(=O)oc2c3c(c4c(c12)OC(C)(C)C=C4)OC(C)CC3=O` (centres unmarked) [Example 1, 4,6,6,10-tetramethyl-2H,6H,12H-benzo[1,2-b:3,4-b′:5,6-b″]-tripyranyl-2,12-dione] returned a melting point of 213 to 215 °C. In addition, the IC50 in series [1] (MABA, H37Rv) turned out to be 39.2 µg/mL (≈ 120 µM). For the same compound, in series [1] (MABA, H37Rv, read-out: MIC90), the MIC90 is 59.5 µg/mL (≈ 182 µM).

The compound `Cc1c(C)c2c3c(c4c(c2oc1=O)C(=O)CC(C)O4)C=CC(C)(C)O3` (centres unmarked) [Example 2, 3,4,6,6,10-pentamethyl-2H,6H,12H-benzo[1,2-b:3,4-b′:5,6-b″]-tripyranyl-2,12-dione] showed a melting point of 142 to 144 °C. Also, the IC50 in series [1] (MABA, H37Rv) was 20.3 µg/mL (≈ 59.7 µM). Further, the MIC90 in series [1] (MABA, H37Rv, read-out: MIC90) is 35.2 µg/mL (≈ 103 µM).

`CC1CC(=O)c2c(c3c(c4c(CN5CCNCC5)cc(=O)oc24)OC(C)(C)C=C3)O1` (centres unmarked) [Example 6, 6,6,10-trimethyl-4-piperazidinylmethylene-10,11-dihydro-6H-benzo[2,3-f:2′,3′-h]-tripyranyl-2,12-dione] came in with a melting point of 156 to 158 °C. Further, in series [1] (MABA, H37Rv), the IC50 worked out at 52.4 µg/mL (≈ 128 µM). Moreover, the MIC90 in series [1] (MABA, H37Rv, read-out: MIC90) was more than 100 µg/mL.

The compound `CC1CC(=O)c2c(c3c(c4c(-c5ccc(N)cc5)cc(=O)oc24)OC(C)(C)C=C3)O1` (centres unmarked) [Example 23, 6,6,10-trimethyl-4-p-aminophenyl-2H,6H,12H-benzo[1,2-b:3,4-b′:5,6-b″]-tripyranyl-2,12-dione] gave a melting point of 149 to 151 °C. Further, the IC50 in series [1] (MABA, H37Rv) was 24.2 µg/mL (≈ 60 µM). The MIC90 in series [1] (MABA, H37Rv, read-out: MIC90) was found to be 27.6 µg/mL (≈ 68.4 µM).

In the case of `CC1CC(=O)c2c(c3c(c4c(-c5cc(F)c(Cl)nc5Cl)cc(=O)oc24)OC(C)(C)C=C3)O1` (centres unmarked) [Example 25], the melting point was in the range of 158 to 160 °C. In addition, the IC50 in series [1] (MABA, H37Rv) turned out to be 2.86 µg/mL (≈ 6 µM). Besides, in series [1] (MABA, H37Rv, read-out: MIC90), the MIC90 worked out at 3.9 µg/mL (≈ 8.18 µM). The MIC90 in series [1] (setting [2]) was less than 10 µg/mL.

Consider `CC1CC(=O)c2c(c3c(c4c5c(c(=O)oc24)CCC5)OC(C)(C)C=C3)O1` (centres unmarked) [Example 26, 6,6,10-trimethyl-3,4-cyclopentyl-2H,6H,12H-benzo[1,2-b:3,4-b′:5,6-b″]-tripyranyl-2,12-dione], for which the melting point lay in the range of 108 to 109 °C. Further, the IC50 in series [1] (MABA, H37Rv) was found to be 23.9 µg/mL (≈ 67.8 µM). The MIC90 in series [1] (MABA, H37Rv, read-out: MIC90) is 43.6 µg/mL (≈ 124 µM).

Compound `CCCc1c(F)c(=O)oc2c3c(c4c(c12)OC(CCC)C=C4)OC(C)CC3=O` (centres unmarked) [Example 32, 10-methyl-3-fluoro-4,6-di(-n-propyl)-2H,6H,12H-benzo[1,2-b:3,4-b′:5,6-b″]-tripyranyl-2,12-dione] came in with a melting point of 123 to 124 °C. Also, the IC50 in series [1] (MABA, H37Rv) was 78.3 µg/mL (≈ 203 µM). For the same compound, in series [1] (MABA, H37Rv, read-out: MIC90), the MIC90 was more than 100 µg/mL.

For `CCCCc1cc(=O)oc2c3c(c4c(c12)OC(CCC)C=C4)OC(C)CC3=O` (centres unmarked) [Example 37, 10-methyl-6-n-propyl-4-n-butyl-2H,6H,12H-benzo[1,2-b:3,4-b′:5,6-b″]-tripyranyl-2,12-dione], the melting point lay within 135 to 138 °C. Besides, the half-inhibitory concentration (IC50) in series [1] (MABA, H37Rv) is 5.33 µg/mL (≈ 13.9 µM). In addition, in series [1] (MABA, H37Rv, read-out: MIC90), the MIC90 is 8.36 µg/mL (≈ 21.9 µM). In series [1] (setting [2]), the MIC90 is less than 10 µg/mL.

As for `CCCCc1cc(=O)oc2c3c(c4c(c12)OC(CCCC)C=C4)OC(C)CC3=O` (centres unmarked) [Example 38], the melting point lay in the range of 146 to 148 °C. For the same compound, in series [1] (MABA, H37Rv), the IC50 was 10.4 µg/mL (≈ 26.3 µM). The MIC90 in series [1] (MABA, H37Rv, read-out: MIC90) came out at 14.4 µg/mL (≈ 36.4 µM).

`CCCC1C=Cc2c3c(c4oc(=O)c(F)c(CC)c4c2O1)C(=O)CC(C)O3` (centres unmarked) [Example 39, 10-methyl-4-ethyl-6-n-propyl-3-fluoro-2H,6H,12H-benzo[1,2-b:3,4-b′:5,6-b″]-tripyranyl-2,12-dione] registered a melting point of 151 to 153 °C. The IC50 in series [1] (MABA, H37Rv) was 5.09 µg/mL (≈ 13.7 µM). Moreover, in series [1] (MABA, H37Rv, read-out: MIC90), the MIC90 is 9.94 µg/mL (≈ 26.7 µM). For the same compound, in series [1] (setting [2]), the MIC90 is less than 10 µg/mL.

Compound `CCCCC1C=Cc2c3c(c4oc(=O)c(F)c(CC)c4c2O1)C(=O)CC(C)O3` (centres unmarked) [Example 40] gave a melting point of 142 to 143 °C. For the same compound, the IC50 in series [1] (MABA, H37Rv) came to 1.58 µg/mL (≈ 4.1 µM). In addition, the MIC90 in series [1] (MABA, H37Rv, read-out: MIC90) is 2.47 µg/mL (≈ 6.39 µM). Further, the MIC90 in series [1] (setting [2]) is less than 10 µg/mL.

`CCCc1cc(=O)oc2c3c(c4c(c12)OC(c1ccccc1)C=C4)OC(C)CC3=O` (centres unmarked) [Example 41, 10-methyl-4-n-propyl-6-phenyl-2H,6H,12H-benzo[1,2-b:3,4-b′:5,6-b″]-tripyranyl-2,12-dione] displayed a melting point of 96 to 99 °C. Moreover, in series [1] (MABA, H37Rv), the IC50 came out at 2.92 µg/mL (≈ 7.25 µM). In series [1] (MABA, H37Rv, read-out: MIC90), the MIC90 is 3.27 µg/mL (≈ 8.12 µM). Besides, the MIC90 in series [1] (setting [2]) is less than 10 µg/mL.

Compound `CCc1c(F)c(=O)oc2c3c(c4c(c12)OC(c1ccccc1)C=C4)OC(C)CC3=O` (centres unmarked) [Example 42, 10-methyl-4-ethyl-6-phenyl-3-fluoro-2H,6H,12H-benzo[1,2-b:3,4-b′:5,6-b″]-tripyranyl-2,12-dione] gave a melting point of 109 to 111 °C. Moreover, in series [1] (MABA, H37Rv), the IC50 worked out at 5.56 µg/mL (≈ 13.7 µM). The MIC90 in series [1] (MABA, H37Rv, read-out: MIC90) worked out at 6.81 µg/mL (≈ 16.7 µM). The MIC90 in series [1] (setting [2]) was less than 10 µg/mL.

Take `CCCc1c(F)c(=O)oc2c3c(c4c(c12)OC(c1ccccc1)C=C4)OC(C)CC3=O` (centres unmarked) [Example 43, 10-methyl-4-n-propyl-6-phenyl-3-fluoro-2H,6H,12H-benzo[1,2-b:3,4-b′:5,6-b″]-tripyranyl-2,12-dione]: the melting point was 128 to 129 °C. The concentration for half-maximal inhibition (IC50) in series [1] (MABA, H37Rv) was 6.42 µg/mL (≈ 15.3 µM). For the same compound, the MIC90 in series [1] (MABA, H37Rv, read-out: MIC90) is 10.8 µg/mL (≈ 25.7 µM).

The compound `CCCCC1C=Cc2c3c(c4oc(=O)c(Cl)c(CCC)c4c2O1)C(=O)CC(C)O3` (centres unmarked) [Example 49, 10-methyl-4-n-propyl-3-chloro-6-n-butyl-2H,6H,12H-benzo[1,2-b:3,4-b′:5,6-b″]-tripyranyl-2,12-dione] returned a melting point of 146 to 149 °C. Moreover, the IC50 in series [1] (MABA, H37Rv) came to 4.62 µg/mL (≈ 11.1 µM). In addition, in series [1] (MABA, H37Rv, read-out: MIC90), the MIC90 turned out to be 6.4 µg/mL (≈ 15.3 µM). Also, the MIC90 in series [1] (setting [2]) is less than 10 µg/mL.

`CCCc1cc(=O)oc2c3c(c4c(c12)OC(CCC)C=C4)OCC(C)C3=O` (centres unmarked) [Example 51] came in with a melting point of 148 to 150 °C. In series [1] (MABA, H37Rv), the half-inhibitory concentration (IC50) is less than 0.2 µg/mL. The MIC90 in series [1] (MABA, H37Rv, read-out: MIC90) turned out to be 0.496 µg/mL (≈ 1.35 µM). Moreover, in series [1] (setting [2]), the MIC90 is less than 10 µg/mL.

As for `CCCc1cc(=O)oc2c3c(c4c(c12)OC(CC)C=C4)OC(C)CC3=O` (centres unmarked) [Example 52, 10-methyl-4-n-propyl-6-ethyl-2H,6H,12H-benzo[1,2-b:3,4-b′:5,6-b″]-tripyranyl-2,12-dione], the melting point is 139 to 141 °C. Also, the concentration for half-maximal inhibition (IC50) in series [1] (MABA, H37Rv) was determined as 11.8 µg/mL (≈ 33.2 µM). Besides, the MIC90 in series [1] (MABA, H37Rv, read-out: MIC90) amounted to 13.4 µg/mL (≈ 37.8 µM).

For the origin of these results see US20100324067A1, “TETRACYCLIC DIPYRANO-COUMARIN COMPOUNDS WITH ANTI-HIV AND ANTI-MYCOBACTERIUM TUBERCULOSIS ACTIVITIES” (priority 2007, published 2010).
